From paper PMC1890308, “Anti-calmodulins and Tricyclic Adjuvants in Pain Therapy Block the TRPV1 Channel” (PLoS ONE, 2007)
pIC50: −log10 of the molar value. “And” between values parts separate entries of the source, which are not always exact repeats. Equal entries are not always repeated.

Legend:
[1] = tested on: heat evoked responses of dorsal horn neurons; test: heat-evoked responses of spinal dorsal horn neurons, microiontophoresis, extracellular single unit recording; type: in vivo, rat
Description: To validate in vivo efficacy of calmidazolium, experiments were carried out in a total of 22 nociceptive specific (NS) or wide dynamic range (WDR) spinal dorsal horn neurons in 16 lightly anesthetized rats. Effects of calmidazolium were studied on the heat evoked responses of dorsal horn neurons using noxious peripheral heat stimuli delivered in every 3 min in the cutaneous receptive field of the hind paw. After establishing stable baseline control responses, calmidazolium was iontophoresed (i.e. with 100 nA) from one of the barrels of the compound electrode. […] The calmidazolium evoked inhibition reached its maximum within 10 to 15 min after ejection and lasted throughout the entire recording periods (about 2 hrs) of the experiment. The monitored cells had excitatory receptive fields located on one of the hind paws. These cells usually had little spontaneous activity, located between 100–600 µm from the surface of the dorsal horn, as estimated by microdrive readings. […] Likewise to that determined previously in TRPV1-NIH3T3 cells, TRPV1-HaCaT keratinocyte lines and primary culture of nociceptive neurons, calmidazolium inhibited the ratemeter recorded signals of radiation heat pain in the rat (Fig. 7). […]

TRPV1 = TRPV1 (Rattus norvegicus, UniProt O35433); test: capsaicin-induced 45Ca2+-uptake in primary rat embryonic DRG cultures; type: cell-based; set-up: sensory neurons, expressing TRPV1 endogenously; endogenous in cells; host or cells: primary cultures of embryonic rat dorsal root ganglia (E14, E16)
TRPV1, sequence (O35433 whole entry): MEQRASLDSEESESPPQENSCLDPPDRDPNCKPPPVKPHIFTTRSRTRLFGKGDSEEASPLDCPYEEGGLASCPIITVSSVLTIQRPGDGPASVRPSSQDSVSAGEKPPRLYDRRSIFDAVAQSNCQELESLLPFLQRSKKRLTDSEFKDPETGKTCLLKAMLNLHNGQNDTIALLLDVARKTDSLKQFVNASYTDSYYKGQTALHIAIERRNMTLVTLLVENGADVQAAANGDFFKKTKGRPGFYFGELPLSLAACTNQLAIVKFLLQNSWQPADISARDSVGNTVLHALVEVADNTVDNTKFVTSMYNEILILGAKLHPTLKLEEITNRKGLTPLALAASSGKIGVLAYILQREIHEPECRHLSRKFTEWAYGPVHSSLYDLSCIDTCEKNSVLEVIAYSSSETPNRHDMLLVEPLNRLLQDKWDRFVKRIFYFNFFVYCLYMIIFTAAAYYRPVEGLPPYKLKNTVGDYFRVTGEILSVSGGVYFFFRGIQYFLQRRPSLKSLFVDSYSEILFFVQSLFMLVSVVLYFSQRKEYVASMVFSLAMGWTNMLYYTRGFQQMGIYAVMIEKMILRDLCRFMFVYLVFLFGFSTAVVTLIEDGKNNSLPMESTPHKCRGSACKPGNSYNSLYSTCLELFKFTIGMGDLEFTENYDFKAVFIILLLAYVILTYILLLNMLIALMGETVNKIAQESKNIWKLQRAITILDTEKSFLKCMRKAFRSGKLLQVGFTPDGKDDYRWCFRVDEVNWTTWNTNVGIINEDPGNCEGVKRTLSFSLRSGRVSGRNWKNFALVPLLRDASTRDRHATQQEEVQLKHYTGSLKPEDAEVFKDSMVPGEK
Description: Primary cultures were prepared from embryonic (E14) rat DRGs. Along with calmidazolium other polycyclic compounds were included in the vanilloid-induced ^45Ca^2+-transport assays.
Primary DRG cultures were prepared from E16 embryonic rats as described previously then plated in 15 cm Petri dishes for 4 h to remove the most adherent fibroblasts. For Ca^2+-uptake studies primary afferents neurons cultured in 96 well plates (3×10^3 cells/well), coated with poly-D lysine/collagen, which yielded both axons and dendrites bearing neurons due to neuronal growth factor supplementation in the culture medium [1]–[4]. The dendrites are large processes branching from the cell body that taper in diameter further from the cell body. The axons are a constant diameter and project over long distances from the cell body. Before the ion transport experiment, culture medium was removed and cells were washed three times. ^45Ca-uptake assays were carried out in “nominally zero Ca^2+” (i.e. 2×10^−5 M extracellular Ca^2+ ([Ca^2+]o) in 25 mM Tris-HCl buffered Hanks' balanced salt solution (pH 7.5), supplemented with 10 µM CaCl2 and 0.8 mM MgCl2medium (HCM) [1]–[4].
Vanilloid agonist inducible calcium transport was assayed in adherent cell lines ectopically expressing the C-terminally ε-tagged rat TRPV1 (3×10^4 cells/well) and primary cultures prepared from embryonic DRG, seeded in poly-D lysine/collagen coated 96 well plates. […] The previously established cell lines and standardized DRG cultures were extensively characterized for functional cell-based TRPV1 studies [1]–[4]. Immediately before the transport assay, cells were adapted to room temperature (20°C) for 5 min in HCM. ^45Ca^2+-uptake was performed for 10 min at 20°C in HCM using 0.1 µCi ^45Ca^2+ as radioactive tracer in a 100 µl final volume. To stop ^45Ca^2+-uptake, cells were rapidly changed back into 0.2 ml HCM, washed 4 additional times with 0.2 ml HCM, and then lysed in 80 µl/well RIPA buffer (50 mM Tris-HCl, pH 7.5, 150 mM NaCl, 1% Triton X-100, 0.5% deoxycholate, 0.1% SDS, 5 mM EDTA) for 30 min [1]–[4]. Aliquots of the solubilized cell extracts were mixed with 120 µl Microscint-40 and counted in a 96 well plate liquid scintillation counter (TopCount-NXT, Packard).

Clc1ccc(C(c2ccc(Cl)cc2)n2cc[n+](CC(OCc3ccc(Cl)cc3Cl)c3ccc(Cl)cc3Cl)c2)cc1 (stereo not shown) [calmidazolium]
heat-evoked responses, % of pre-calmidazolium baseline control ([1]; anesthetized rat, iontophoresis 100 nA, noxious peripheral heat on hind paw, mean±SD, n = 6): 34±23%
duration of inhibition (entire recording period) ([1]; heat-evoked responses, rat): about 2 hrs
fold higher potency in DRG cultures (TRPV1; DRG cultures vs TRPV1-NIH3T3 cells / other compounds (comparator unclear)): ~3 fold
pIC50 (TRPV1; rat embryonic DRG sensory neuron cultures, 2 µM capsaicin, read-out: IC50, inhibition of capsaicin-induced Ca2+-uptake): 6.22 and ~6.22
